Our source for the Ki and IC50 values is patent publication US20110166121A1 (LG LIFE SCIENCES LTD., priority 2008, published 2011).

Test [1] concerns Human platelet aggregation caused by ADP. The experiment in a line: Inhibition of ADP-induced platelet aggregation (Mimic-human PRP). Type of test: cell-based. As to conditions: 20 μM ADP, human platelet concentrate diluted with PPP, absorption at 595 nm. In short, it runs like this: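 Ki came from non-linear sigmoidal fits of inhibition, measured as the 3-min rise in absorbance at 595 nm after 20 μM ADP, relative to 0/20 μM ADP controls. Platelets (3–4×10^8/mL in PPP-diluted human PRP) were exposed to 0.01–30 μM compound for 20 min at room temperature beforehand.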

In another test the target is T1, Human P2Y12 receptor (Homo sapiens, UniProt Q9H244).
T1 construct: expressed in transfected cells; host or cells: HEK cells
In words: Human P2Y12 receptor cell membrane binding assay with [3H] 2-Mes-ADP. Conditions: 1 nM [3H] 2-Mes-ADP, membranes of HEK cells expressing P2Y12 receptor; read-out: Binding activity (IC50). In short, it runs like this:
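Competition binding used 1 nM [3H]2-MeS-ADP on P2Y12-expressing HEK cell membranes for 1 h at room temperature, followed by filtration and scintillation counting.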

Each structure is given as a SMILES string.

T1 sequence (Q9H244 whole entry): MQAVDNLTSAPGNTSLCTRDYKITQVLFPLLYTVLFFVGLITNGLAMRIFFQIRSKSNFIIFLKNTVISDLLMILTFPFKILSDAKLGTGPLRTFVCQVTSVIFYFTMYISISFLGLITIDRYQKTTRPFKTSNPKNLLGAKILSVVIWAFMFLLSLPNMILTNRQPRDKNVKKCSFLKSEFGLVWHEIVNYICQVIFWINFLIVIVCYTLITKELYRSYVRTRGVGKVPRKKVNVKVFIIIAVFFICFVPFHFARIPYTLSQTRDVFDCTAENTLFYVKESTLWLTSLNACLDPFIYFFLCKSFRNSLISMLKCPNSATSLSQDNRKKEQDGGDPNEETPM

`CCCc1cc2c(N3CCn4c(nnc4C(F)(F)F)C3)nc(N3CC[C@H](NC(=O)Cc4c[nH]cn4)C3)nc2s1` [Example 1-120, 2-(1H-Imidazol-4-yl)-N-{(S)-1-[6-propyl-4-(3-trifluoromethyl-5,6-dihydro-8H-[1,2,4]triazolo[4,3-a]pyrazin-7-yl)-thieno[2,3-d]pyrimidin-2-yl]-pyrrolidin-3-yl}-acetamide] yielded a Ki in test [1] of 16 nM. In addition, on Human P2Y12 receptor, the IC50 was 38 nM.
Taken in the same sequence, the figures for `CCCc1cc2c(N3CCn4c(nnc4C(F)(F)F)C3)nc(NCCOCC)nc2s1` [Example 1-122, (2-Ethoxy-ethyl)-[6-propyl-4-(3-trifluoromethyl-5,6-dihydro-8H-[1,2,4]triazolo[4,3-a]pyrazin-7-yl)-thieno[2,3-d]pyrimidin-2-yl]-amine] were 467 nM and 220 nM.
Taken in the same sequence, the figures for `CCCc1cc2c(N3CCn4c(nnc4C(F)(F)F)C3)nc(NCCOCCO)nc2s1` [Example 1-123, 2-{2-[6-Propyl-4-(3-trifluoromethyl-5,6-dihydro-8H-[1,2,4]triazolo[4,3-a]pyrazin-7-yl)-thieno[2,3-d]pyrimidin-2-ylamino]-ethoxy}-ethanol] were 367 nM and 260 nM.
Compound `CCCc1cc2c(N3CCn4c(nnc4C(F)(F)F)C3)nc(N3CCC[C@H](N)C3)nc2s1` [Example 1-125, (S)-1-[6-Propyl-4-(3-trifluoromethyl-5,6-dihydro-8H-[1,2,4]triazolo[4,3-a]pyrazin-7-yl)-thieno[2,3-d]pyrimidin-2-yl]-piperidin-3-ylamine] came in with a Ki in test [1] of 45 nM. Also, the IC50 on Human P2Y12 receptor was found to be 150 nM.
Taken in the same sequence, the figures for `CCCc1cc2c(N3CCn4c(nnc4C(F)(F)F)C3)nc(N[C@H]3CCNC3)nc2s1` [Example 1-126, [6-Propyl-4-(3-trifluoromethyl-5,6-dihydro-8H-[1,2,4]triazolo[4,3-a]pyrazin-7-yl)-thieno[2,3-d]pyrimidin-2-yl]-(S)-pyrrolidin-3-yl-amine] were 29 nM and 130 nM.
`CCCc1cc2c(N3CCn4c(nnc4C(F)(F)F)C3)nc(N3CCC(C(=O)NS(=O)(=O)Cc4ccccc4)CC3)nc2s1` [Example 1-127, C-Phenyl-N-{1-[6-propyl-4-(3-trifluoromethyl-5,6-dihydro-8H-[1,2,4]triazolo[4,3-a]pyrazin-7-yl)-thieno[2,3-d]pyrimidin-2-yl]-piperidine-4-carbonyl}-methanesulfonamide] yielded a Ki in test [1] of 900 nM. Further, the IC50 on Human P2Y12 receptor is 100 nM.
Compound `CCCc1cc2c(N3CCn4c(nnc4C(F)(F)F)C3)nc(NCCN3CSCC3=O)nc2s1` [Example 1-128, 3-{2-[6-Propyl-4-(3-trifluoromethyl-5,6-dihydro-8H-[1,2,4]triazolo[4,3-a]pyrazin-7-yl)-thieno[2,3-d]pyrimidin-2-ylamino]-ethyl}-thiazolidin-4-one] displayed a Ki in test [1] of 61 nM. Besides, at Human P2Y12 receptor, the IC50 is 100 nM.
On the same counts, the results for `CCCc1cc2c(N3CCn4c(nnc4C(F)(F)F)C3)nc(N[C@@H]3CCNC3)nc2s1` [Example 1-130, [6-Propyl-4-(3-trifluoromethyl-5,6-dihydro-8H-[1,2,4]triazolo[4,3-a]pyrazin-7-yl)-thieno[2,3-d]pyrimidin-2-yl]-(R)-pyrrolidin-3-yl-amine] are 132 nM and 320 nM.
In test [1], `CCCc1cc2c(N3CCn4c(nnc4C(F)(F)F)C3)nc(Nc3nc(C(=O)O)cs3)nc2s1` [Example 1-132, 2-[6-Propyl-4-(3-trifluoromethyl-5,6-dihydro-8H-[1,2,4]triazolo[4,3-a]pyrazin-7-yl)thieno[2,3-d]pyrimidin-2-ylamino]thiazole-4-carboxylic acid] returned a Ki of 100 nM. In addition, the IC50 at Human P2Y12 receptor worked out at 47 nM.
Taken in the same sequence, the figures for `CCCc1cc2c(N3CCn4c(nnc4C(F)(F)F)C3)nc(N3CCNc4ncccc43)nc2s1` [Example 1-134, 1-[6-Propyl-4-(3-trifluoromethyl-5,6-dihydro-8H-[1,2,4]triazolo[4,3-a]pyrazin-7-yl)thieno[2,3-d]pyrimidin-2-yl]-1,2,3,4-tetrahydro-pyrido[2,3-b]pyrazine] were 869 nM and 1000 nM.
Taken in the same sequence, the figures for `CCc1cc2c(N3CCn4c(nnc4C(F)(F)F)C3)nc(N3CCNC(=O)C3)nc2s1` [Example 2-2, 4-[6-Ethyl-4-(3-trifluoromethyl-5,6-dihydro-8H-[1,2,4]triazolo[4,3-a]pyrazin-7-yl)-thieno[2,3-d]pyrimidin-2-yl]-piperazin-2-one] were 832 nM and 97 nM.
For the compound `CCc1cc2c(N3CCn4c(nnc4C(F)(F)F)C3)nc(NCCO)nc2s1` [Example 2-5, 2-[6-Ethyl-4-(3-trifluoromethyl-5,6-dihydro-8H-[1,2,4]triazolo[4,3-a]pyrazin-7-yl)-thieno[2,3-d]pyrimidin-2-ylamino]-ethanol], in test [1], the affinity corresponds to a Ki of 857 nM. Further, the IC50 on Human P2Y12 receptor worked out at 710 nM.
Consider `CCc1cc2c(N3CCn4c(nnc4C(F)(F)F)C3)nc(N(CCO)CCO)nc2s1` [Example 2-6, 2-[[6-Ethyl-4-(3-trifluoromethyl-5,6-dihydro-8H-[1,2,4]triazolo[4,3-a]pyrazin-7-yl)-thieno[2,3-d]pyrimidin-2-yl]-(2-hydroxy-ethyl)-amino]-ethanol], for which, in test [1], the Ki was 715 nM. The IC50 at Human P2Y12 receptor worked out at 835 nM.
Taken in the same sequence, the figures for `CCc1cc2c(N3CCn4c(nnc4C(F)(F)F)C3)nc(N3CCNCC3)nc2s1` [Example 2-7, 7-(6-Ethyl-2-piperazin-1-yl-thieno[2,3-d]pyrimidin-4-yl)-3-trifluoromethyl-5,6,7,8-tetrahydro-[1,2,4]triazolo[4,3-a]pyrazine] were 669 nM and 210 nM.
Taken in the same sequence, the figures for `CCc1cc2c(N3CCn4c(nnc4C(F)(F)F)C3)nc(N3CCN(C)CC3)nc2s1` [Example 2-10, 7-[6-Ethyl-2-(4-methyl-piperazin-1-yl)-thieno[2,3-d]pyrimidin-4-yl]-3-trifluoromethyl-5,6,7,8-tetrahydro-[1,2,4]triazolo[4,3-a]pyrazine] were 773 nM and 220 nM.
As for `CC(C)c1cc2c(N3CCn4c(nnc4C(F)(F)F)C3)nc(N3CCNC(=O)C3)nc2s1` [Example 2-12, 4-[6-isopropyl-4-(3-trifluoromethyl-5,6-dihydro-8H-[1,2,4]triazolo[4,3-a]pyrazin-7-yl)-thieno[2,3-d]pyrimidin-2-yl]-piperazin-2-one], in test [1], the Ki amounted to 2900 nM. For the same compound, the IC50 on Human P2Y12 receptor was 460 nM.
In test [1], `CCCCc1cc2c(N3CCn4c(nnc4C(F)(F)F)C3)nc(N3CCNC(=O)C3)nc2s1` [Example 2-14, 4-[6-Butyl-4-(3-trifluoromethyl-5,6-dihydro-8H-[1,2,4]triazolo[4,3-a]pyrazin-7-yl)-thieno[2,3-d]pyrimidin-2-yl]-piperazin-2-one] came in with a Ki of 329 nM. The IC50 at Human P2Y12 receptor is 100 nM.
In test [1], `CCCCc1cc2c(N3CCn4c(nnc4C(F)(F)F)C3)nc(NCCO)nc2s1` [Example 2-15, 2-[6-Butyl-4-(3-trifluoromethyl-5,6-dihydro-8H-[1,2,4]triazolo[4,3-a]pyrazin-7-yl)-thieno[2,3-d]pyrimidin-2-ylamino]-ethanol] gave a Ki of 223 nM. Besides, the IC50 on Human P2Y12 receptor turned out to be 240 nM.
On the same counts, the results for `CCCCc1cc2c(N3CCn4c(nnc4C(F)(F)F)C3)nc(N3CCN(C)CC3)nc2s1` [Example 2-16, 7-[6-Butyl-2-(4-methyl-piperazin-1-yl)-thieno[2,3-d]pyrimidin-4-yl]-3-trifluoromethyl-5,6,7,8-tetrahydro-[1,2,4]triazolo[4,3-a]pyrazine] are 817 nM and 188 nM.
Compound `CC(C)Cc1cc2c(N3CCn4c(nnc4C(F)(F)F)C3)nc(N3CCNC(=O)C3)nc2s1` [Example 2-17, 4-[6-Isobutyl-4-(3-trifluoromethyl-5,6-dihydro-8H-[1,2,4]triazolo[4,3-a]pyrazin-7-yl)-thieno[2,3-d]pyrimidin-2-yl]-piperazin-2-one] came in with a Ki in test [1] of 440 nM. On Human P2Y12 receptor, the IC50 came to 367 nM.
Taken in the same sequence, the figures for `CC(C)Cc1cc2c(N3CCn4c(nnc4C(F)(F)F)C3)nc(N3CC[C@@H](O)C3)nc2s1` [Example 2-18, (R)-1-[6-Isobutyl-4-(3-trifluoromethyl-5,6-dihydro-8H-[1,2,4]triazolo[4,3-a]pyrazin-7-yl)-thieno[2,3-d]pyrimidin-2-yl]-pyrrolidin-3-ol] were 310 nM and 330 nM.
Taken in the same sequence, the figures for `O=C1CN(c2nc(N3CCn4c(nnc4C(F)(F)F)C3)c3cc(CCC(F)(F)F)sc3n2)CCN1` [Example 2-19, 4-[4-(3-Trifluoromethyl-5,6-dihydro-8H-[1,2,4]triazolo[4,3-a]pyrazin-7-yl)-6-(3,3,3-trifluoro-propyl)-thieno[2,3-d]pyrimidin-2-yl]-piperazin-2-one] were 550 nM and 362 nM.
On the same counts, the results for `O[C@@H]1CCN(c2nc(N3CCn4c(nnc4C(F)(F)F)C3)c3cc(CCC(F)(F)F)sc3n2)C1` [Example 2-20, (R)-1-[4-(3-Trifluoromethyl-5,6-dihydro-8H-[1,2,4]triazolo[4,3-a]pyrazin-7-yl)-6-(3,3,3-trifluoro-propyl)-thieno[2,3-d]pyrimidin-2-yl]-pyrrolidin-3-ol] are 40 nM and 260 nM.
`CCCc1cc2c(N3CCn4c(nnc4C(F)(F)F)C3)nc(OCC(O)CO)nc2s1` (stereo not drawn) [Example 3-1, 3-[6-Propyl-4-(3-trifluoromethyl-5,6-dihydro-8H-[1,2,4]triazolo[4,3-a]pyrazin-7-yl)-thieno[2,3-d]pyrimidin-2-yloxy]-propane-1,2-diol] had a Ki in test [1] of 31 nM. For the same compound, the 50% inhibitory concentration (IC50) at Human P2Y12 receptor stood at 140 nM.
